Experimental data reported in patent US11155576B2, “Synthetic peptides, enzymatic formation of pericellular hydrogels/nanofibrils, and methods of use” (BRANDEIS UNIVERSITY, priority 2014, dated 2021).
“Also recorded” adds a separate entry of the source. Square brackets hold non-standard residues; d marks the D form. Peptide text beside a SMILES is read from it. * marks the point of attachment. ξ: configuration not given here. d(pY) = N[C@H](Cc1ccc(OP(=O)(O)O)cc1)C(=O)O; NBD = O=[N+]([O-])c1ccc(*)c2nonc12; ξ2Nal = NC(Cc1ccc2ccccc2c1)C(=O)O; βAla = NCCC(=O)O

What was measured:
[1] = test system: Alkaline-phosphatase (“ALP”); settings: D-3a; ALP (2 U/ml) in FIG. 38B
From the text: […] Scale bar=100 nm.
Napthalene capped tripeptide precursor molecule D-2a and hydrogelator molecule D-2b, synthesized according to Yang et al. (Small 3:558-562 (2007), which is hereby incorporated by reference in its entirety), are comprised of the tripeptide D-Phe-D-Phe-D-Tyr (FIG. 1B). The D-Tyr of D-2a is phosphorylated (FIG. 1B).

[2] = test system: Capan-2; assay: Ectophosphatase imaging of live cells, Capan-2; type: cell-based, human; settings: 500 μM, 24 hour incubation
Experimental: (§1) FIGS. 18A-H show imaging and ectophosphatase quantification of live cells incubated with D3-a. FIGS. 18A-F show confocal microscopy images. […] The scale bar is […]. The images in FIG. 18B show the time course of fluorescence on HeLa cells incubated with D3-a for 30 minutes, 1 hour, 3 hours, and 6 hours, respectively. Nuclei were stained with Hoechst 33342. FIG. 18C is a 3D stacked z-scan image of fluorescence on HeLa cells treated with D-3a for 6 hours. […] Scale bar: 100 μm for FIG. 18B, upper panels and FIG. 18D; 10 μm for FIG. 18B, lower panels, FIG. 18E, and FIG. 18F. [D-3a]=500 μM for enhancing spatiotemporal resolution. […] FIG. 18H is a plot of time versus the fluorescence of pericellular nanofibrils on HeLa cells treated with D-3a. The initial cell number is 5,000 cells/well. All the confocal microscope images were taken after removing the medium with D-3a and then adding the live cell image solution (Invitrogen Life Technologies A14291DJ). [D3-a]=500 μM for FIGS. 18G-H.
(§2) To validate D-3a as an effective agent for the detection of phosphatase activity on a wide variety of cells, the cellular ectophosphatase activity of various cell lines, including PC-12, Capan-2, A375, Ect1/E6E7, and C3H10T1/2, was evaluated following 24 hour incubation of cells with 500 μM D-3a (FIG. 18A).

[3] = test system: Ect1/E6E7; assay: Ectophosphatase imaging of live cells, Ect1/E6E7; type: cell-based, human; settings: 500 μM, 24 hour incubation
Experimental: as §1, §2

[4] = test system: C3H10T1/2; assay: Ectophosphatase imaging of live cells, C3H10T1/2; type: cell-based, murine; settings: 500 μM, 24 hour incubation
Experimental: as §1, §2

[5] = test system: HeLa cells; assay: Fluorescence imaging of HeLa/HS-5 co-culture, HeLa; type: cell-based, human; settings: co-culture of HeLa and HS-5, 500 μM, 6 and 24 hours
From the text: (§3) FIGS. 17A-C illustrates that phosphatases catalyze self-assembly to form fluorescent nanofibrils with high spatiotemporal resolution. FIG. 17A is an illustration of phosphatase-catalyzed spatiotemporal formation of fluorescent pericellular nanofibrils in co-culture mimicking tumor microenvironment. […] ALP or tyrosine phosphatase (“PTP”) converts D-3a to D-3b, which self-assembles in physiological condition to form fluorescent nanofibrils of D-3b. FIG. 17C contains a pair of fluorescent images showing that the fluorescent nanofibrils of D-3b selectively form on HeLa cells (the cancer cell, identified by arrows) and […] (the stromal cell, indicated by the arrow heads) in the co-culture of HeLa and HS-5. [D-3a]=500 μM, 6 hours (left panel) and 24 hours (right panel) incubation (scale bar=10 μm, the nuclei stained by Hoechst 33342, a DNA dye for live cells).
(§4) Co-culture of cancer cell (i.e., HeLa cells) and stromal cells (i.e., HS-5 cells) mimics the tumor microenvironment (Straussman et al., Nature 487:500-U118 (2012), which is hereby incorporated by reference in its entirety). […] This approach also offers a method for the visualization of live cells that express ectophosphatases.

[6] = test system: HeLa cells; assay: Ectophosphatase imaging of live cells, HeLa time course; type: cell-based, human
Experimental: as §1
To investigate the spatiotemporal resolution of D-3a fluorescence, HeLa cells were incubated with 500 μM D-3a for varying amounts of time (30 minutes, 1 hour, 3 hours, and 6 hours, respectively) and imaged by confocal microscopy (FIG. 18B). […] Quantification of ectophosphatase activity on the surface of HeLa cells treated with 500 μM of D-3a is shown in FIGS. 18G-18H as a function of cell number or time, respectively.

[7] = test system: PC-12 Adh; assay: Ectophosphatase imaging of live cells, PC-12 Adh; type: cell-based, rat; settings: 500 μM, 24 hour incubation
Experimental: as §1, §2

[8] = test system: HS-5 cells; assay: Fluorescence imaging of HeLa/HS-5 co-culture, HS-5; type: cell-based; settings: co-culture of HeLa and HS-5, 500 μM, 6 and 24 hours
From the text: as §3, §4

[9] = test system: A375; assay: Ectophosphatase imaging of live cells, A375; type: cell-based, human; settings: 500 μM, 24 hour incubation
Experimental: as §1, §2

[10] = test system: HeLa cells; assay: LC-MS composition of pericellular hydrogel/nanofibrils and suspension medium of HeLa cells; type: in vitro ADME, human; settings: HeLa cells incubated with precursor at 560 μM at 37° C. for 12 hours
[11] = test system: HeLa cells; assay: Cell adhesion assay; type: cell-based, human; settings: 560 μM, trypsinized HeLa cells, at 4 hours
Experimental: Cells in exponential growth phase were detached using 0.25% trypsin-EDTA. After neutralizing trypsin by addition of complete culture medium, the cells were collected by centrifuge (1000 rpm, 3 min). The cell pellet was suspended by addition of culture medium to a concentration of 4×10^5 cells/mL. 1 mL of the cell suspension was mixed with 1 mL of 2×D-2a or D-2b containing culture media. The resulting solutions were added into 96 well plate at 100 μL/well. After the desired time of incubation at 37° C., 5% CO2, the solution was gently removed, and then 100 μL of culture medium and 10 μL of 5 mg/mL MTT were added to each well. Following 4 hour incubation in the dark, 100 μL of 10% SDS with 0.01M HCl was added to each well to stop the reduction reaction and to dissolve the purple. After incubation of the cells at 37° C. for overnight, the viability was measured. Data represent the mean±standard deviation of three independent experiments.

[12] = test system: secretory phosphatases present in HeLa cell conditioned medium; assay: Hydrogelation in HeLa cell conditioned medium; type: biochemical, human; settings: 560 μM, 48 hours
Experimental: 2×10^5 of cells in exponential growth phase were seeded in a 35 mm Petri dish with 1 mL complete culture medium. Following overnight incubation, 1 mL of new medium was replaced and incubated for 24 h at 5% CO2, 37° C. The medium was next removed and centrifuged at 10,000 rpm for 5 minutes. The suspension was placed into a 1.5 mL Eppendorf® tube and stored at −20° C. Stored conditioned medium was thawed and warmed to 37° C. in water bath immediately before use.
HeLa cell conditioned medium (“CM”) dephosphorylates D-2a to form D-2b nanofibrils.

[13] = test system: HeLa cells; assay: Pericellular hydrogelation on HeLa cells (optical images); type: cell-based, human; settings: 560 μM, 2 hours at 37° C.
Experimental: An 11.2 mM (8.09 mg/mL) stock solution of D-2a was prepared in ddH2O. The pH was adjusted to 7.4 using 1N NaOH. 2×10^5 cells in exponential growth phase were seeded in 35 mm Petri dish with 1 mL complete culture medium. Following overnight incubation, the medium was replaced with 1 mL of medium containing D-2a (diluted from the stock solution immediately prior to use). Petri dishes were incubated at 37° C. for two hours. Next, dishes were removed from the incubator and titled on a bench to visualize the pericellular hydrogel. Prior to co-incubation with phosphatase inhibitors, cells were washed three times with medium containing Pierce phosphatase inhibitor cocktail (Thermo) (contains sodium floride, sodium orthovanadate, sodium pyrophosphate, and beta-glycerophosphate). Next, 1 mL of medium containing both the inhibitor cocktail and D-2a was applied to the cells.

[14] = test system: HeLa cells; assay: Cell viability assay (MTT), HeLa; type: cell-based, human; settings: 280 μM, direct addition
Experimental: Cells in exponential growth phase were seeded in a 96 well plate at a concentration of 2×10^4 cells/well. The cells were allowed to attach to the wells for 24 hours at 37° C., 5% CO2. The culture medium was removed and 100 μL culture medium containing compounds (immediately diluted from fresh prepared stock solution of 10 mM) at gradient concentrations (0 μM as the control) was placed into each well. After culturing at 37° C., 5% CO2 for 48 hours, each well was added by 10 μL of 5 mg/mL MTT (3-(4,5-dimethylthiazoL-2-yl)-2,5-diphenyltetrazolium bromide), and the plated cells were incubated in the dark for 4 hours. 100 μL 10% SDS with 0.01M HCl was added to each well to stop the reduction reaction and to dissolve the purple. After overnight incubation of the cells at 37° C., the OD at 595 nm of the solution was measured in a microplate reader. Data represent the mean±standard deviation of three independent experiments.

## O=C(CCNc1ccc([N+](=O)[O-])c2nonc12)NC(Cc1ccc2ccccc2c1)C(=O)N[C@H](Cc1ccccc1)C(=O)N[C@H](Cc1ccccc1)C(=O)N[C@H](Cc1ccc(OP(=O)(O)O)cc1)C(=O)O (stereo partly drawn) [D-3a, NBD-D-Nal-D-Phe-D-Phe-D-pTyr] ({NBD-βAla}-[ξ2Nal][dF][dF][d(pY)]-OH)
[1]
  Hydrogel formation after phosphatase-catalyzed dephosphorylation: self-assembles to form the fluorescent nanonets/hydrogel
[2]
  NBD fluorescence: weak
[3]
  NBD fluorescence: strong fluorescence in the cytosol
[4]
  NBD fluorescence: sporadic fluorescence on cell surface
[5]
  NBD fluorescence on cancer cells in co-culture: selective formation of bright yellow (NBD) fluorescence on the surface of the cancer cells
[6]; 500 μM, 30 minutes, 1 hour, 3 hours, 6 hours
  Cell surface fluorescence over time: increased cell surface fluorescence with time
[6]; 6 hour incubation with D-3a, then fresh medium for 24 hours
  Fluorescence after re-incubation in fresh medium: only nuclear dye fluorescence
[7]
  Cell surface exhibiting NBD fluorescence: more than 50%
[8]
  NBD fluorescence on stromal cells in co-culture: only yellow puncta are observed inside the HS-5 stromal cells
[9]
  NBD fluorescence: no fluorescence

## O=C(Cc1ccc2ccccc2c1)N[C@@H](Cc1ccccc1)C(=O)N[C@@H](Cc1ccccc1)C(=O)N[C@@H](Cc1ccc(OP(=O)(O)O)cc1)C(=O)O [L-2a]
[10]
  L-2b in suspension medium: 176.6 µM
  L-3 in suspension medium: 270.4 µM

## Nap-D-Phe-D-Phe-D-Tyr [D-2b]
[11]
  Cells reattached to surface: > 80%
[12]
  Hydrogel formation in HeLa cell conditioned medium: fails to form a hydrogel
[13]
  Pericellular hydrogel formation on HeLa cells: hardly any hydrogelation; also recorded: does not form pericellular hydrogels
[14]
  Growth inhibition of HeLa cells: hardly inhibits the growth
